# Assay results published in US10508085B2, “Compounds and methods for IDO and TDO modulation, and indications therefor” (Plexxikon Inc., priority 2016, dated 2019).
# Read-outs that look alike come from different tables or passages of the source.
# Assays:
# [1] = target: T1, Human Indoleamine 2,3-dioxygenase (IDO) (Homo sapiens, UniProt P14902); test: Human IDO enzymatic assay (kynurenine level); assay type: biochemical; conditions: 6 nM IDO, 10 μM L-Trp; geometric mean; read-out: IDO1 GMean: IC50 (μM) (Biochemical Assay)
# T1 construct: His tag (N); made in house; host or cells: E. coli
# Summary of the method: (§1)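 IDO conditions: 6 nM His-IDO, 10 μM L-Trp, 5 μM methylene blue, 20 min, RT. TDO conditions: 1 nM His-TDO, 350 μM L-Trp, 0.4 μM methylene blue, 70 min, RT. Both used pH 6.5 phosphate plus ascorbate/catalase, TCA stop at 50° C, kynurenine readout, nonlinear-regression IC50.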
# [2] = target: T2, Human Tryptophan 2,3-dioxygenase (TDO) (Homo sapiens, UniProt P48775); test: Human TDO enzymatic assay (kynurenine level); assay type: biochemical; conditions: 1 nM TDO, 350 μM L-Trp; geometric mean; read-out: TDO GMean: IC50 (μM) (Biochemical Assay)
# T2 construct: His tag (N); made in house; host or cells: E. coli
# Summary of the method: as §1
# [3] = target: T3, human TDO (TDO-expressing HEK293 cells) (Homo sapiens, UniProt P48775); test: Cell based kynurenine assay, TDO-expressing HEK293 cell clones; conditions: TDO-expressing HEK293 cells, geometric mean, read-out: HEK293 TDO Kynurenine GMean IC50 (μM) (Cellular Assay)
# T3 construct: expressed in transfected cells
# Summary of the method: (§2)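 Supernatant kynurenine was measured after 24 h exposure of stably transfected HEK293 cells (human IDO1 or TDO, 2.5×10^4/well) to serially diluted compound. Percent inhibition used 0.2% DMSO cell wells as high and media-only wells as low controls; IC50 fitted by nonlinear regression.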
# [4] = target: T4, human IDO (IDO1-expressing HEK293 cells) (Homo sapiens, UniProt P14902); test: Cell based kynurenine assay, IDO1-expressing HEK293 cell clones; conditions: IDO1-expressing HEK293 cells, geometric mean, read-out: HEK293 IDO1 Kynurenine GMean IC50 (μM) (Cellular Assay)
# T4 construct: expressed in transfected cells
# Summary of the method: as §2
# T1 sequence (P14902 whole entry): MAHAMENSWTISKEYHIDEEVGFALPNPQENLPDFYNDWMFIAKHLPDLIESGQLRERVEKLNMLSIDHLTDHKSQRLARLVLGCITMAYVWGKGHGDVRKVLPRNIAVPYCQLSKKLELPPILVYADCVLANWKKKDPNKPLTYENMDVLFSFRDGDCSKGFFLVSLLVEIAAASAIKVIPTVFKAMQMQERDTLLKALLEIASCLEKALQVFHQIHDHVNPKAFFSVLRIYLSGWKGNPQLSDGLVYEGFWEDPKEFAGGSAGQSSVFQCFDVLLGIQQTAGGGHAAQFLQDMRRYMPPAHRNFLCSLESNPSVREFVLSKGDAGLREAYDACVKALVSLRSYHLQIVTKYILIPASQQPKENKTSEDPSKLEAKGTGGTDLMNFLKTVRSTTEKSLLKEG
# T4 sequence (P14902 whole entry): as above
# T2 sequence (P48775 whole entry): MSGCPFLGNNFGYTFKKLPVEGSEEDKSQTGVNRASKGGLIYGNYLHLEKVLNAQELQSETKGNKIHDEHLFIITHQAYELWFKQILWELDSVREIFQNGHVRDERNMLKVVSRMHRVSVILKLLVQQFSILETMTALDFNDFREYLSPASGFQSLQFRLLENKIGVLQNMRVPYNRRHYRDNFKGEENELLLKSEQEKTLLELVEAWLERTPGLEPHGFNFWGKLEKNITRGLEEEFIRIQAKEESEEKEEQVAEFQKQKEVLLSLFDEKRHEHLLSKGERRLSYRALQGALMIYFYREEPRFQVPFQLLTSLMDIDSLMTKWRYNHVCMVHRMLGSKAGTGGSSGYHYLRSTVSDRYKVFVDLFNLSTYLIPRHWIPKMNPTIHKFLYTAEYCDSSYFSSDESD
# T3 sequence (P48775 whole entry): as above
IC50 [1] [µM],IC50 [2] [µM],IC50 ([3]; 24 hours incubation) [µM],IC50 ([4]; 24 hours incubation) [µM],IC50 ([3]; 24 hours) [µM],IC50 ([4]; 24 hours) [µM],SMILES
0.0001 to 10,0.0001 to 10,0.0001 to 10,0.0001 to 10,–,–,"CC(C)(C1CCN(C(=O)Nc2ccc(F)cc2F)CC1)C(O)c1cc(Cl)cc2cn[nH]c12 (stereo not shown) [Compound P-0398, 4-(1-(5-chloro-1H-indazol-7-yl)-1-hydroxy-2-methylpropan-2-yl)-N-(2,4-difluorophenyl) piperidine-1-carboxamide]"
0.0001 to 10,0.0001 to 10,0.0001 to 10,0.0001 to 10,–,–,"CCNC(=O)N1CCC(C(C)(C)C(O)c2cc(Cl)cc3cn[nH]c23)CC1 (stereo not shown) [Compound P-0399, 4-(1-(5-chloro-1H-indazol-7-yl)-1-hydroxy-2-methylpropan-2-yl)-N-ethylpiperidine-1-carboxamide]"
0.0001 to 10,0.0001 to 10,0.0001 to 10,0.0001 to 10,–,–,"CC(C)(C1CCN(C(=O)Nc2cccc(C(F)(F)F)c2)CC1)C(O)c1cc(Cl)cc2cn[nH]c12 (stereo not shown) [Compound P-0400, 4-(1-(5-chloro-1H-indazol-7-yl)-1-hydroxy-2-methylpropan-2-yl)-N-(3-(trifluoromethyl)phenyl)piperidine-1-carboxamide]"
0.0001 to 10,0.0001 to 10,0.0001 to 10,0.0001 to 10,–,–,"CC(C)(C1CCN(C(=O)Nc2ccccc2C(F)(F)F)CC1)C(O)c1cc(Cl)cc2cn[nH]c12 (stereo not shown) [Compound P-0401, 4-(1-(5-chloro-1H-indazol-7-yl)-1-hydroxy-2-methylpropan-2-yl)-N-(2-(trifluoromethyl)phenyl)piperidine-1-carboxamide]"
0.0001 to 10,0.0001 to 10,0.0001 to 10,0.0001 to 10,–,–,"CN(C)c1ccc(NC(=O)N2CCC(C(C)(C)C(O)c3cc(Cl)cc4cn[nH]c34)CC2)cc1 (stereo not shown) [Compound P-0402, 4-(1-(5-chloro-1H-indazol-7-yl)-1-hydroxy-2-methylpropan-2-yl)-N-(4-(dimethylamino)phenyl)piperidine-1-carboxamide]"
0.0001 to 10,0.0001 to 10,0.0001 to 10,0.0001 to 10,–,–,"CC(C)(C1CCN(C(=O)Nc2ccc(OC(F)(F)F)cc2)CC1)C(O)c1cc(Cl)cc2cn[nH]c12 (stereo not shown) [Compound P-0403, 4-(1-(5-chloro-1H-indazol-7-yl)-1-hydroxy-2-methylpropan-2-yl)-N-(4-(trifluoromethoxy)phenyl)piperidine-1-carboxamide]"
0.0001 to 10,0.0001 to 10,0.0001 to 10,0.0001 to 10,–,–,"CC(C)(C1CCN(C(=O)Nc2cc(F)ccc2F)CC1)C(O)c1cc(Cl)cc2cn[nH]c12 (stereo not shown) [Compound P-0404, 4-(1-(5-chloro-1H-indazol-7-yl)-1-hydroxy-2-methylpropan-2-yl)-N-(2,5-difluorophenyl) piperidine-1-carboxamide]"
0.0001 to 10,0.0001 to 10,0.0001 to 10,0.0001 to 10,–,–,"CCOC(=O)NC(=O)N1CCC(C(C)(C)C(O)c2cc(Cl)cc3cn[nH]c23)CC1 (stereo not shown) [Compound P-0405, ethyl (4-(1-(5-chloro-1H-indazol-7-yl)-1-hydroxy-2-methylpropan-2-yl)piperidine-1-carbonyl)carbamate]"
0.0001 to 10,0.0001 to 10,–,–,0.0001 to 10,0.0001 to 10,"Cc1ccc(Cl)c(NC(=O)N2CCC(C(C)(C)C(O)c3cc(Cl)cc4cn[nH]c34)CC2)c1 (stereo not shown) [Compound P-0406, 4-(1-(5-chloro-1H-indazol-7-yl)-1-hydroxy-2-methylpropan-2-yl)-N-(2-chloro-5-methylphenyl) piperidine-1-carboxamide]"
0.0001 to 10,0.0001 to 10,–,–,0.0001 to 10,> 10,"OC1(c2cc(Cl)cc3cn[nH]c23)[C@H]2CCC[C@@H]1CCC2 (stereo partly drawn) [Compound P-0407, (1R,5S)-9-(5-chloro-1H-indazol-7-yl)bicyclo[3.3.1] nonan-9-ol]"
0.0001 to 10,0.0001 to 10,–,–,0.0001 to 10,0.0001 to 10,"O=C(CC1CC1)N1CCC(C(F)(F)C(O)c2c(F)c(Cl)cc3cn[nH]c23)CC1 (stereo not shown) [Compound P-0408, 1-(4-(2-(5-chloro-6-fluoro-1H-indazol-7-yl)-1,1-difluoro-2-hydroxyethyl)piperidin-1-yl)-2-cyclopropylethan-1-one]"

# More lines, now with the values behind:
SMILES,IC50 [1] [µM],IC50 [2] [µM],IC50 ([3]; 24 hours incubation) [µM],IC50 ([4]; 24 hours incubation) [µM],IC50 ([3]; 24 hours) [µM],IC50 ([4]; 24 hours) [µM]
"CC(C)(C1CCN(C(=O)Nc2ccnc(N3CCOCC3)c2)CC1)C(O)c1cc(Cl)cc2cn[nH]c12 (stereo not shown) [Compound P-0390, 4-(1-(5-chloro-1H-indazol-7-yl)-1-hydroxy-2-methylpropan-2-yl)-N-(2-morpholinopyridin-4-yl)piperidine-1-carboxamide]",0.0001 to 10,0.0001 to 10,0.0001 to 10,0.0001 to 10,–,–
"CC(C)(C1CCN(C(=O)N2CCOCC2)CC1)C(O)c1cc(Cl)cc2cn[nH]c12 (stereo not shown) [Compound P-0391, (4-(1-(5-chloro-1H-indazol-7-yl)-1-hydroxy-2-methylpropan-2-yl)piperidin-1-yl)(morpholino) methanone]",0.0001 to 10,0.0001 to 10,0.0001 to 10,0.0001 to 10,–,–
"Cc1noc(C)c1NC(=O)N1CCC(C(C)(C)C(O)c2cc(Cl)cc3cn[nH]c23)CC1 (stereo not shown) [Compound P-0392, 4-(1-(5-chloro-1H-indazol-7-yl)-1-hydroxy-2-methylpropan-2-yl)-N-(3,5-dimethylisoxazol-4-yl)piperidine-1-carboxamide]",0.0001 to 10,0.0001 to 10,0.0001 to 10,0.0001 to 10,–,–
"CC(C)(C1CCN(C(=O)Nc2ccc(Cl)c(C(F)(F)F)c2)CC1)C(O)c1cc(Cl)cc2cn[nH]c12 (stereo not shown) [Compound P-0393, 4-(1-(5-chloro-1H-indazol-7-yl)-1-hydroxy-2-methylpropan-2-yl)-N-(4-chloro-3-(trifluoromethyl)phenyl)piperidine-1-carboxamide]",0.0001 to 10,0.0001 to 10,0.0001 to 10,0.0001 to 10,–,–
"Cc1ccc(NC(=O)N2CCC(C(C)(C)C(O)c3cc(Cl)cc4cn[nH]c34)CC2)cc1Cl (stereo not shown) [Compound P-0394, 4-(1-(5-chloro-1H-indazol-7-yl)-1-hydroxy-2-methylpropan-2-yl)-N-(3-chloro-4-methylphenyl) piperidine-1-carboxamide]",0.0001 to 10,0.0001 to 10,0.0001 to 10,0.0001 to 10,–,–
"CC(C)(C1CCN(C(=O)Nc2cc(Cl)cc(Cl)c2)CC1)C(O)c1cc(Cl)cc2cn[nH]c12 (stereo not shown) [Compound P-0395, 4-(1-(5-chloro-1H-indazol-7-yl)-1-hydroxy-2-methylpropan-2-yl)-N-(3,5-dichlorophenyl) piperidine-1-carboxamide]",0.0001 to 10,0.0001 to 10,0.0001 to 10,0.0001 to 10,–,–
"COc1cc(NC(=O)N2CCC(C(C)(C)C(O)c3cc(Cl)cc4cn[nH]c34)CC2)cc(OC)c1 (stereo not shown) [Compound P-0396, 4-(1-(5-chloro-1H-indazol-7-yl)-1-hydroxy-2-methylpropan-2-yl)-N-(3,5-dimethoxyphenyl) piperidine-1-carboxamide]",0.0001 to 10,0.0001 to 10,0.0001 to 10,0.0001 to 10,–,–
"Cc1ccc(NC(=O)N2CCC(C(C)(C)C(O)c3cc(Cl)cc4cn[nH]c34)CC2)cc1 (stereo not shown) [Compound P-0397, 4-(1-(5-chloro-1H-indazol-7-yl)-1-hydroxy-2-methylpropan-2-yl)-N-(p-tolyl) piperidine-1-carboxamide]",0.0001 to 10,0.0001 to 10,0.0001 to 10,0.0001 to 10,–,–
